pEC50: −log10 of the molar value.
Assays:
[1] = test system: caspase 3 activity of HepG2 cells; experiment: Caspase-3 colorimetric activity assay; type: cell-based, human; conditions: HepG2, 100 µM, 24 h, compared to DMSO control
Experimental: The activity of caspase 3 enzyme was measured using caspase 3 colorimetric assay kit purchased from Sigma-Aldrich. […] Cells were lysed and the protein content of cell lysate was quantified by the BCA protein assay (Thermo Fisher Scientific Inc., Ottawa, ON, Canada). Caspase-3 activity was measured in the 200 µg of cell lysate using the caspase-specific peptide substrate, DEVD (Asp-Glu-Val-Asp), conjugated to reporter p-nitroanaline (ρ-NA) molecules.

[2] = test system: HepG2 cells; experiment: DNA fragmentation (apoptotic DNA ladder); type: cell-based, human; conditions: HepG2, 100 µM, 24 h, agarose gel
Experimental: HepG2 (1×10^5) cells were seeded in 24-well culture plates and were allowed to adhere overnight. […] The plates were re-incubated for another 24 h. DNA fragmentation was detected using ApoTarget Quick Apoptotic DNA Ladder Detection Kit (Invitrogen, Burlington, ON, Canada) according to the manufacturer’s protocol. The principle involves detecting the internucleosomal DNA fragments formed during apoptosis. Briefly, floating dead cells and trypsinized adherent cells were collected and centrifuged at 1,000 rpm for 10 min. After washing with diluted phosphate buffered saline, the cells were lysed with 35 µL TE lysis buffer (a kit component). To the lysate, 5 µL of Enzyme A (a kit component) was added and incubated at 37°C for 10 min. Afterwards, 5 µL of Enzyme B (a kit component) was added, gently mixed and incubated at 50°C for 30 min. The DNA was precipitated with the ammonium acetate and absolute ethanol at −20°C. After centrifugation (10 min at 12,000 rpm) and air drying, the DNA pellet was dissolved in 30 µL of DNA suspension buffer. For detecting the DNA ladder, the extracted DNA samples were run on a 1.2% agarose gel containing 0.5 µg/mL gel red in Tris-Borate-EDTA (TBE) buffer. After electrophoresis, the gel image was captured using Gel Doc 100 system (Bio-Rad, Mississauga, ON, Canada).

[3] = target: T1, human DNA topo IIα (Homo sapiens, UniProt P11388); experiment: Topoisomerase IIα catalytic activity (pHOT1 DNA relaxation); type: biochemical; conditions: 100 µM, 4 units enzyme, 37°C 30 min
T1 construct: purchased TopoGEN, Inc., Columbus, OH, USA
Experimental: The topo IIα catalytic activity was monitored via electrophoresis using topoisomerase II drug screening kit (TopoGEN, Inc., Columbus, OH, USA). Briefly, 20 µL of reaction mixtures contained 0.5 M Tris-HCl, pH 8.0, 1.5 M NaCl, 100 mM MgCl2, 20 mM ATP, 300 µg BSA/mL and 5 mM dithiothreitol. Supercoiled DNA (pHOT1 DNA), supercoiled provided in the kit was determined to be ideal for this assay because it is small and easy to handle and has a large number of topo IIα recognition elements. […] The reaction was terminated by adding 2 µL of 10% sodium dodecyl sulfate (SDS) followed by digestion with 2 µL of proteinase K (50 µg/mL) at 37°C for 15 min to degrade enzyme. After adding 2 µL of loading buffer (0.25% bromophenol blue and 50% glycerol) was added to the mixture, samples were loaded onto 1% agarose gel. Electrophoresis was conducted at 66 V (2 V/cm) for 5 h in TBE buffer using Biorad Electrophoretic Gel System (Bio-Rad, Hercules, CA, USA). Supercoiled DNA (pHOT1 DNA) and relaxed DNA were included in the electrophoresis run as markers for DNA topology. Gels were then stained in 0.5 µg/mL gel red in TBE for 30 min and destained for 15 min in distilled water prior to digital image acquisition using Gel Doc 100 system (Bio-Rad, Hercules, CA, USA).
One unit of topoisomerase II activity was defined as the minimum amount of enzyme required to achieve complete relaxation of […] superhelical pHOT1 DNA in 30 min at 37°C. […] The percent of inhibition was calculated by the following formula: [drawing 1] Where Scontrol is the percent of supercoiled DNA in the control lane (without enzyme and test compounds), S0 is the percent of supercoiled DNA in the lane without test compounds and S is the percent of supercoiled DNA in the lane with test compounds and enzyme.

[4] = test system: MDA-MB-231 cells; experiment: MTS cell proliferation assay, MDA-MB-231; type: cell-based, human; conditions: Homo sapiens, MTS
Experimental: (§1) Cell viability was determined by using the MTS assay. In brief, HepG2 cells (5×10^3 cells/100 µL/well), MDA-MB-231 (5×10^3 cells/100 µL/well), THP-1 (25×10^3/100 µL/well), normal human and rat hepatocytes (1×10^4 cells/100 µL/well) were plated in triplicate, in a 96 well sterile flat bottom tissue culture plates. […] Thereby, cells were exposed to various concentrations (0.1, 1, 10, 25, 50, 75, 100 µM) of each treatment. Controls consist of cells with media containing DMSO (<0.5%), test blank wells contained the test compound in media with no cells and blank wells contained media with no cells. After additional 3, 6, 12, 18 or 24 h, 20 µL of the MTS reagent in combination with the electron coupling agent, phenazine methosulfate were added to the wells and cells were incubated in a humidified incubator for 3 h. Absorbance at 490 nm (OD490) was measured by using a Flurostar Optima microplate reader (BMG Labtech, Cary, NC, USA) to obtain the number of viable cells relative to the control population. Percentage of viability of the test compound treated cells are expressed as percentage compared to control (<0.5% DMSO). […] The selective index (SI) of the fatty acid esters of phloridzin is defined as the ratio of cytotoxicity (EC50 values) on normal HP-F cells to solid cancer HepG2, MDA-MB-231 cells (SI = EC50 on HP-F cells/EC50 on solid cancer cells). Samples with SI values greater than three were considered to have high selectivity towards cancer cells.

[5] = test system: HepG2 cells; experiment: Annexin V/7-AAD apoptosis/necrosis fluorescence microscopy; type: cell-based, human; conditions: HepG2, 100 µM, 24 h
Experimental: HepG2 cells were seeded into Nunc Lab-Tek two chamber slide (Sigma-Aldrich Canada) at a density of 1×10^6 cells/chamber. […] The slides were washed with diluted phosphate buffered saline. After removing the chamber, each slide was added with 50 µL of Dual Detection Reagent containing apoptosis detection reagent (Annexin V-EnzoGold) and necrosis detection reagent (7-AAD) in 1X binding buffer. The samples were incubated at room temperature for 15 min in the dark. After staining, the cells were washed with binding buffer and covered with a glass coverslip. The stained cells were observed under a fluorescence Zeiss Axiovert 200 m inverted microscope (Carl Zeiss, Toronto, ON, Canada) at magnification of ×40 with a filter set for Annexin V-EnzoGold (Ex/Em: 550/570 nm) and 7-AAD (Ex/Em: 546/647 nm).

[6] = test system: HepG2 cells; experiment: MTS cell proliferation assay, HepG2; type: cell-based, human; conditions: Homo sapiens, MTS
Experimental: as §1

T1 sequence (P11388 whole entry): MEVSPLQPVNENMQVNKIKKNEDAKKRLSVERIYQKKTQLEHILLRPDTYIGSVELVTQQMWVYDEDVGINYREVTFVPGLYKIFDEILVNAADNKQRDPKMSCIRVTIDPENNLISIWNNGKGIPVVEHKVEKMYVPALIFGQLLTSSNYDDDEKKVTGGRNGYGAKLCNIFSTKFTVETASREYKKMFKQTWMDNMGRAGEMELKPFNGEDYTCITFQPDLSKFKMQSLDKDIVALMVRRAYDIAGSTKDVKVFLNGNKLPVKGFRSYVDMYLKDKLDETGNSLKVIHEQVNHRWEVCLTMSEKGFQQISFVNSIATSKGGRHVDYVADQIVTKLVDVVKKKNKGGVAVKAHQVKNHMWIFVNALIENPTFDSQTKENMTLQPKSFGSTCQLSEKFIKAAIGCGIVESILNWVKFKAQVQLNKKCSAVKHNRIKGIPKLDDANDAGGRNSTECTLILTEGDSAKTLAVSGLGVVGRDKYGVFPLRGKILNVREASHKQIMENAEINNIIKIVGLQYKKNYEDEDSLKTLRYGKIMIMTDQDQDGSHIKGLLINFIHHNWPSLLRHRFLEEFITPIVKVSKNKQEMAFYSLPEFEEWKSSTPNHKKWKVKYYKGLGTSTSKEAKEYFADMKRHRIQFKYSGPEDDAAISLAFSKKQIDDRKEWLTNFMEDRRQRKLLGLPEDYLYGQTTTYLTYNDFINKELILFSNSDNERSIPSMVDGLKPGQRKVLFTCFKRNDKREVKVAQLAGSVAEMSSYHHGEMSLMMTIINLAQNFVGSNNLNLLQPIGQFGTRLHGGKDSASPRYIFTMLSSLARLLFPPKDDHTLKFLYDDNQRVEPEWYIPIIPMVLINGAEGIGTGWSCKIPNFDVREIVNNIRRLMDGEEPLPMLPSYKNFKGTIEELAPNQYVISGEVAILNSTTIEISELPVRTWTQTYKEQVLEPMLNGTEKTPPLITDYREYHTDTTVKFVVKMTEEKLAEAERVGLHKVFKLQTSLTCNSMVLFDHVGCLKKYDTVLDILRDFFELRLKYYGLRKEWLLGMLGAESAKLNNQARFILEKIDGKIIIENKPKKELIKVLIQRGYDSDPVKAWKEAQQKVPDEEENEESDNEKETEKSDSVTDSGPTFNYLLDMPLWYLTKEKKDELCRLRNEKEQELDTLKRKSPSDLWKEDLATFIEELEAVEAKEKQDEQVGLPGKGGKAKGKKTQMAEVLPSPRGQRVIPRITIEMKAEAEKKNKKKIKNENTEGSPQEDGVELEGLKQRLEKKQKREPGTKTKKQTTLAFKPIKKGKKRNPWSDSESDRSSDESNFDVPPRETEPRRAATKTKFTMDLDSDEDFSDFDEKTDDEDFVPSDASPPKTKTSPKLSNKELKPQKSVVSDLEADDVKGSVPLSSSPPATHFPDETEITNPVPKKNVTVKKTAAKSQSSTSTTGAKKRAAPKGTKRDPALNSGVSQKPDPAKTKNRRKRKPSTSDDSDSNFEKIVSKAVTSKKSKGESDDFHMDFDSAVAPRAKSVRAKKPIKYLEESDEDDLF

O=C(CCc1ccc(O)cc1)c1c(O)cc(O)cc1O [Phloretin]
caspase 3 activity [1]: enhanced caspase 3 activity but significantly (P<0.001) lower than fatty acid esters of phloridzin or the drug
internucleosomal DNA fragmentation [2]: only intact genomic DNA
catalytic activity of human DNA topo IIα (pHOT DNA relaxation) [3]: inhibited catalytic activity
pEC50 ([4]; MDA-MB-231, 3 h): < 4.00
pEC50 ([4]; MDA-MB-231, 6 h): < 4.00
pEC50 ([4]; MDA-MB-231, 12 h): < 4.00
pEC50 ([4]; MDA-MB-231, 18 h): < 4.00
pEC50 ([4]; MDA-MB-231, 24 h): < 4.00
apoptosis/necrosis by Annexin V/7-AAD staining [5]: less apoptotic death of cells
pEC50 ([6]; HepG2, 3 h): < 4.00
pEC50 ([6]; HepG2, 6 h): < 4.00
pEC50 ([6]; HepG2, 12 h): < 4.00
pEC50 ([6]; HepG2, 18 h): < 4.00
pEC50 ([6]; HepG2, 24 h): 4.01

O=C(CCc1ccc(O)cc1)c1c(O)cc(O)cc1O[C@@H]1O[C@H](CO)[C@@H](O)[C@H](O)[C@H]1O [Phloridzin, phloretin 2′-O-glucoside]
caspase 3 activity [1]: enhanced caspase 3 activity but significantly (P<0.001) lower than fatty acid esters of phloridzin or the drug
internucleosomal DNA fragmentation [2]: only intact genomic DNA
catalytic activity of human DNA topo IIα (pHOT DNA relaxation) [3]: inhibited catalytic activity
pEC50 ([4]; MDA-MB-231, 3 h): < 4.00
pEC50 ([4]; MDA-MB-231, 6 h): < 4.00
pEC50 ([4]; MDA-MB-231, 12 h): < 4.00
pEC50 ([4]; MDA-MB-231, 18 h): < 4.00
pEC50 ([4]; MDA-MB-231, 24 h): < 4.00
apoptosis/necrosis by Annexin V/7-AAD staining [5]: less apoptotic death of cells
pEC50 ([6]; HepG2, 3 h): < 4.00
pEC50 ([6]; HepG2, 6 h): < 4.00
pEC50 ([6]; HepG2, 12 h): < 4.00
pEC50 ([6]; HepG2, 18 h): < 4.00
pEC50 ([6]; HepG2, 24 h): < 4.00
